Legend:
[1] = target: T1, CSNK1G2 (Homo sapiens, UniProt P78368); test: KINOMEscan panel screen; assay type: binding; conditions: read-out: Percent Control(%)
T1 construct: purchased DiscoveRx KINOMEscan (Ambit Biosciences)

[2] = target: T2, p38-delta (Homo sapiens, UniProt O15264); test: KINOMEscan panel screen; assay type: binding; conditions: read-out: Percent Control(%)
T2 construct: purchased DiscoveRx KINOMEscan (Ambit Biosciences)

[3] = target: T3, ROCK2 (Homo sapiens, UniProt O75116); test: KINOMEscan panel screen; assay type: binding; conditions: read-out: Percent Control(%)
T3 construct: purchased DiscoveRx KINOMEscan (Ambit Biosciences)

[4] = target: T4, TGFBR1 (Homo sapiens, UniProt P36897); test: KINOMEscan panel screen; assay type: binding; conditions: read-out: Percent Control(%)
T4 construct: DNA tag (qPCR read-out); purchased Ambit Biosciences (KINOMEscan service)

[5] = target: T5, PKAC-beta (Homo sapiens, UniProt P22694); test: KINOMEscan panel screen; assay type: binding; conditions: read-out: Percent Control(%)
T5 construct: purchased DiscoveRx KINOMEscan (Ambit Biosciences)

[6] = target: T6, PIK3CA(E545K) (Homo sapiens, UniProt P42336, E545K); test: KINOMEscan panel screen; assay type: binding; conditions: read-out: Percent Control(%)
T6 construct: purchased DiscoveRx KINOMEscan (Ambit Biosciences)

[7] = target: T7, MAP4K2 (Homo sapiens, UniProt Q12851); test: KINOMEscan panel screen; assay type: binding; conditions: read-out: Percent Control(%)
T7 construct: purchased DiscoveRx KINOMEscan (Ambit Biosciences)
T7 sequence (Q12851 whole entry): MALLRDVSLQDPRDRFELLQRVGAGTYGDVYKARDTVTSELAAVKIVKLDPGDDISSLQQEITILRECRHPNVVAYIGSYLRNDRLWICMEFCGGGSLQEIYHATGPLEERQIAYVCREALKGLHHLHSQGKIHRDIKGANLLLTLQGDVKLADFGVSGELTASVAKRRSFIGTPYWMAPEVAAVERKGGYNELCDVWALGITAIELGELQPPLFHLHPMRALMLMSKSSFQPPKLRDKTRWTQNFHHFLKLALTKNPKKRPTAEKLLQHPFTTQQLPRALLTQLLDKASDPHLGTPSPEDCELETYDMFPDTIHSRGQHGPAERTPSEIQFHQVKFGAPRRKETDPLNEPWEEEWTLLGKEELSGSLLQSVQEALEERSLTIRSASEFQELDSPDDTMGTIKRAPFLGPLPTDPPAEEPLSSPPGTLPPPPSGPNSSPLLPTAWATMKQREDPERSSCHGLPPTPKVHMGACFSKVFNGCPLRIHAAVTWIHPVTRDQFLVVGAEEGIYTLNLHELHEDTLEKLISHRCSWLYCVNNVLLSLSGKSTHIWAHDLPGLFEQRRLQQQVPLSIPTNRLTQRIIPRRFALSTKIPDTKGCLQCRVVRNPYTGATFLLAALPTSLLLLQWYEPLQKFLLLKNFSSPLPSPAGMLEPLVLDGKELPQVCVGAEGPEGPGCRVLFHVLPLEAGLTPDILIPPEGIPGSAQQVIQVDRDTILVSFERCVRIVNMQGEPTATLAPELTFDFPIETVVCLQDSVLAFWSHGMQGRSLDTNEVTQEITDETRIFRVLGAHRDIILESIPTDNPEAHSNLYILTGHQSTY

[8] = target: T8, SNARK (Homo sapiens, UniProt Q9H093); test: KINOMEscan panel screen; assay type: binding; conditions: read-out: Percent Control(%)
T8 construct: purchased DiscoveRx KINOMEscan (Ambit Biosciences)
T8 sequence (Q9H093 whole entry): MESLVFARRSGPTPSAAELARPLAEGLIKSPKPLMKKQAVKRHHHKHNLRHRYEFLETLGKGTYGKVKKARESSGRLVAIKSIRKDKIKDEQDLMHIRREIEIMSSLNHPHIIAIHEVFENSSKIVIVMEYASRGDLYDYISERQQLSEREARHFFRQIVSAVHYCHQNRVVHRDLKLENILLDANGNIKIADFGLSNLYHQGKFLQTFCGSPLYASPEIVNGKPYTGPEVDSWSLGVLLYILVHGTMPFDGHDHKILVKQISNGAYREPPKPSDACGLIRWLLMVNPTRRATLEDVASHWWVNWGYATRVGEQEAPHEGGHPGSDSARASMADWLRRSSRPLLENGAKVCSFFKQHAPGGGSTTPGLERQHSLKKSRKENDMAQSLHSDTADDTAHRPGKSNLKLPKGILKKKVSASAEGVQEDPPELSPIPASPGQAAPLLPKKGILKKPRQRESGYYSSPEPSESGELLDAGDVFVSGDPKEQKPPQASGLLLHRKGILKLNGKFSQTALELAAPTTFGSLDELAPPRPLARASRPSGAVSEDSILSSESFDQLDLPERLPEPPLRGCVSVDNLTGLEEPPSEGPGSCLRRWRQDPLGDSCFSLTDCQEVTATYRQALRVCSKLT

[9] = target: T9, RSK1(Kin.Dom.1-N-terminal) (Homo sapiens, UniProt Q15418); test: KINOMEscan panel screen; assay type: binding; conditions: read-out: Percent Control(%)
T9 construct: RSK1(Kin.Dom.1-N-terminal); purchased DiscoveRx KINOMEscan (Ambit Biosciences)
T9 sequence (Q15418 62-321 limits assumed): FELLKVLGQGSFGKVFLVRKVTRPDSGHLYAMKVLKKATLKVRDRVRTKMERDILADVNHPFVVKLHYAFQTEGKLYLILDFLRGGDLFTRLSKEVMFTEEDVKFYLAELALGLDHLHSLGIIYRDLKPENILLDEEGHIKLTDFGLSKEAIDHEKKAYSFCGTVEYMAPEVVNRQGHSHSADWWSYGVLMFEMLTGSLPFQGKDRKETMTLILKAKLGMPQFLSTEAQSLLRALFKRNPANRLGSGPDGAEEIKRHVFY

[10] = target: T10, PRKD1 (Homo sapiens, UniProt Q15139); test: KINOMEscan panel screen; assay type: binding; conditions: read-out: Percent Control(%)
T10 construct: purchased DiscoveRx KINOMEscan (Ambit Biosciences)
T10 sequence (Q15139 whole entry): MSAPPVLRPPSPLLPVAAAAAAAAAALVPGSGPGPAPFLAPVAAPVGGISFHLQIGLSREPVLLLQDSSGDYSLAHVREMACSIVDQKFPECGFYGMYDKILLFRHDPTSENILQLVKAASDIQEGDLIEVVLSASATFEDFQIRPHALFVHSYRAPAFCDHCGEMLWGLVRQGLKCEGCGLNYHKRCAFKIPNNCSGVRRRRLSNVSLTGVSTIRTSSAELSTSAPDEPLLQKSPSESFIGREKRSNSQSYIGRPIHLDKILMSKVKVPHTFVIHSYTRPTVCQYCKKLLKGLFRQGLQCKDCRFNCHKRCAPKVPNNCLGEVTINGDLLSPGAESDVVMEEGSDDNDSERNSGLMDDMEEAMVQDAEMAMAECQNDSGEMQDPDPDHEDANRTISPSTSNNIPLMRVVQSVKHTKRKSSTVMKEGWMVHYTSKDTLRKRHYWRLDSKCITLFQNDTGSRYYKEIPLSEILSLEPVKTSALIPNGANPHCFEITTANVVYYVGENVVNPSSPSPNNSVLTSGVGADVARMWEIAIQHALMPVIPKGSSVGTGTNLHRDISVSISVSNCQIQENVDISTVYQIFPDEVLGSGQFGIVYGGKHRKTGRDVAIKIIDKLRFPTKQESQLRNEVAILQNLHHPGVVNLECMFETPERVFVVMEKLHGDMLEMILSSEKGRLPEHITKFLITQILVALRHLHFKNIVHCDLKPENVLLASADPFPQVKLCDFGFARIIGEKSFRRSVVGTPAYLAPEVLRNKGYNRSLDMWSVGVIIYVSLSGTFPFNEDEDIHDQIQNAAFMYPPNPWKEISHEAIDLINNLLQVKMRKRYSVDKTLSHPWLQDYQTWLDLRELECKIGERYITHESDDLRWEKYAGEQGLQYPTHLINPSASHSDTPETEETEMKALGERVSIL

[11] = target: T11, OSR1 (Homo sapiens, UniProt O95747); test: KINOMEscan panel screen; assay type: binding; conditions: read-out: Percent Control(%)
T11 construct: purchased DiscoveRx KINOMEscan (Ambit Biosciences)

[12] = tested on: SW620; test: MTT cell viability assay; conditions: Homo sapiens, SW-620, 72 h
[13] = target: T12, PHKG2 (Homo sapiens, UniProt P15735); test: KINOMEscan panel screen; assay type: binding; conditions: read-out: Percent Control(%)
T12 construct: purchased DiscoveRx KINOMEscan (Ambit Biosciences)

[14] = target: T13, RSK3(Kin.Dom.2-C-terminal) (Homo sapiens, UniProt Q15349); test: KINOMEscan panel screen; assay type: binding; conditions: read-out: Percent Control(%)
T13 construct: RSK3(Kin.Dom.2-C-terminal); purchased DiscoveRx KINOMEscan (Ambit Biosciences)
T13 sequence (Q15349 415-672 limits assumed): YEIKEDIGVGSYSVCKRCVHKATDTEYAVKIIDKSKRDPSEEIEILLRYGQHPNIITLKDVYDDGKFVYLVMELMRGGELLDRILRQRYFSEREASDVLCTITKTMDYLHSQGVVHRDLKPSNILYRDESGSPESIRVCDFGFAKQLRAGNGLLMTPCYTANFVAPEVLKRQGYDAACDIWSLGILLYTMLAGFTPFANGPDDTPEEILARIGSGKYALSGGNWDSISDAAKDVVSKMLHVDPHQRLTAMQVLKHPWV

[15] = tested on: MV4-11 cells; test: Apoptosis assay (AnnexinV/PI staining); assay type: cell-based, human; conditions: 3 nM
Description: PI staining was used to detect the cell cycle status. […] The induction of apoptosis following treatment of MV4-11 cells was examined by AnnexinV/PI staining assays.
Flow cytometry was used for cell cycle and apoptosis assays. MV4-11 cells were treated with SKLB-677 for 24 h, and then the cells were harvested and washed with PBS. Cell Cycle and Apoptosis Analysis Kit (Beyotime) was used for cell cycle analysis and the Annexin V-FITC & PI Cell Apoptosis Analysis Kit (KeyGENE BioTECH) was used for apoptosis assays. The data was analyzed using FLOWJO software (V7.6.5).
Figure 2 SKLB-677 inhibited FLT3 activation and induced cell cycle arrest and apoptosis. (a) MV4-11 cells were treated with various concentrations of SKLB-677 or 0.1% DMSO for 1 h. The phosphorylation levels of FLT3 and downstream signal proteins were assessed using antibodies against total FLT3 (FLT3), phosphorylated Y589/591 FLT3 (p-FLT3), total STAT5 (STAT5), phosphorylated Y694 STAT5 (p-STAT5), total p44/42 MAPK (Erk1/2), and phosphorylated Y202/204 p44/42 MAPK (p-Erk1/2). β-actin was used as a loading control. (b) Primary PBMCs isolated from AML patients (FLT3-ITD positive) were treated with various concentrations of SKLB-677 or 0.1% DMSO for 6 h. The phosphorylation levels of FLT3 and downstream signal proteins were detected used the same method as that in panel a. […]

[16] = target: T14, DRAK1 (Homo sapiens, UniProt Q9UEE5); test: KINOMEscan panel screen; assay type: binding; conditions: read-out: Percent Control(%)
T14 construct: purchased DiscoveRx KINOMEscan (Ambit Biosciences)

[17] = target: T15, FLT1 (Homo sapiens, UniProt P17948); test: KINOMEscan panel screen; assay type: binding; conditions: read-out: Percent Control(%)
T15 construct: purchased DiscoveRx KINOMEscan (Ambit Biosciences)
T15 sequence (P17948 27-1338): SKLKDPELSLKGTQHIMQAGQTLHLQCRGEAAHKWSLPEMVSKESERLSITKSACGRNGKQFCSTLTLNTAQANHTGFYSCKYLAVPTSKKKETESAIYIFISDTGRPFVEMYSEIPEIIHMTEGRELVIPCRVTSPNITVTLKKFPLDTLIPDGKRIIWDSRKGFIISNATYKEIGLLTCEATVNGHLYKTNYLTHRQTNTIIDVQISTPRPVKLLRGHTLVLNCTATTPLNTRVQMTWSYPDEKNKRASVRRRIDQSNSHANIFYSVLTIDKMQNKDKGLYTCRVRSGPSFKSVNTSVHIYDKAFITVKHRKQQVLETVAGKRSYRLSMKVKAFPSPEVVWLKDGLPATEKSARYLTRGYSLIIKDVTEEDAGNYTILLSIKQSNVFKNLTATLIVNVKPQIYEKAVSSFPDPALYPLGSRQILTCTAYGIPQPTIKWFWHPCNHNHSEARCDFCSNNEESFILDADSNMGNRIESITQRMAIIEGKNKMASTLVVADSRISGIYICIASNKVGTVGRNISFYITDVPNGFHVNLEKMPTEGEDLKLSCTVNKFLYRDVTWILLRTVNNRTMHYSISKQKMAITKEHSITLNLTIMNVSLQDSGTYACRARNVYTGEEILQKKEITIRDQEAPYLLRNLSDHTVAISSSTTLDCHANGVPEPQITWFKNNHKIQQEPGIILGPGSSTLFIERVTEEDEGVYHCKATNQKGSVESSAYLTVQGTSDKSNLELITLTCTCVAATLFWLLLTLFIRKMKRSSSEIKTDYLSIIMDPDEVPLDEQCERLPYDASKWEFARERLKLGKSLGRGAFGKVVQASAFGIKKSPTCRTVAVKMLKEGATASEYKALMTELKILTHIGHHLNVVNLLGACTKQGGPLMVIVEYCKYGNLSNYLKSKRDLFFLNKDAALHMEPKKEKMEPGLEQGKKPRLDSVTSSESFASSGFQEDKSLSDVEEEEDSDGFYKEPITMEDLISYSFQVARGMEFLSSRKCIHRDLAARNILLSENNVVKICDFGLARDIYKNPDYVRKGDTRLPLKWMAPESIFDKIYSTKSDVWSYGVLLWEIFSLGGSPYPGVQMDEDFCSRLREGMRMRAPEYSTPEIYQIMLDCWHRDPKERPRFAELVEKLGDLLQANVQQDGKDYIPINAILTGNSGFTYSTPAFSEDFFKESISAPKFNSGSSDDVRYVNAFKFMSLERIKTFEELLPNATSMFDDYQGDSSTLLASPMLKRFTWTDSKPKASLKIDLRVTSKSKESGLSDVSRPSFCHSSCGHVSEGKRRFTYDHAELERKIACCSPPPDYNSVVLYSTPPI

[18] = target: T16, MAST1 (Homo sapiens, UniProt Q9Y2H9); test: KINOMEscan kinase binding assay (Kd)
T16 construct: purchased DiscoveRx KINOMEscan (Ambit Biosciences)

[19] = target: T17, ALK (Homo sapiens, UniProt Q9UM73); test: KINOMEscan panel screen; assay type: binding; conditions: read-out: Percent Control(%)
T17 construct: purchased DiscoveRx KINOMEscan (Ambit Biosciences)

[20] = target: T18, YSK4 (Homo sapiens, UniProt Q56UN5); test: KINOMEscan panel screen; assay type: binding; conditions: read-out: Percent Control(%)
T18 construct: purchased DiscoveRx KINOMEscan (Ambit Biosciences)

[21] = tested on: PLC/PRF/5; test: MTT cell viability assay; conditions: Homo sapiens, PLC-PRF-5, 72 h

T2 sequence (O15264 whole entry): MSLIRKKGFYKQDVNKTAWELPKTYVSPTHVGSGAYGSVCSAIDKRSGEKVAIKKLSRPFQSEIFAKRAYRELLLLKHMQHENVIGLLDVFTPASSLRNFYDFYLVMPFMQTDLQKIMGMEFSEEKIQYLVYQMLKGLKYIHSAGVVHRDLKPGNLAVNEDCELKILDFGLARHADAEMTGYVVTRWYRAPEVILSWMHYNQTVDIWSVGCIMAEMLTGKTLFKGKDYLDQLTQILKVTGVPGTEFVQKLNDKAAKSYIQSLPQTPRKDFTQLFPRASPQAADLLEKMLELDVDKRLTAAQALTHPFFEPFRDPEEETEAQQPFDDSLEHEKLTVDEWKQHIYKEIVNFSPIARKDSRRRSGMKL
T1 sequence (P78368 whole entry): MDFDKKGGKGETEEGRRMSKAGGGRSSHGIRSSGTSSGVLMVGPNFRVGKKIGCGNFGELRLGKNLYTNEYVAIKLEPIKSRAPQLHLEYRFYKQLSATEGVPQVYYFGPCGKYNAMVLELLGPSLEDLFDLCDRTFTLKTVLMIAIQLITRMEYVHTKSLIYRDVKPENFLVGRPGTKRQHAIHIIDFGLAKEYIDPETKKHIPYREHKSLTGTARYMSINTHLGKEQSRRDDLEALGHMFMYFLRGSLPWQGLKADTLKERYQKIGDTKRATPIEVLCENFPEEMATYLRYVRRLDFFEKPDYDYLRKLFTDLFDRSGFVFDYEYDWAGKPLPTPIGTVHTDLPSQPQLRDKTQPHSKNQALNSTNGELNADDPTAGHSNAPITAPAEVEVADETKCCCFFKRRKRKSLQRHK

SMILES: CC(C)(C)c1cc(NC(=O)Nc2ccc(Oc3ncnc4[nH]ncc34)c(F)c2)no1 [SKLB-677, 1-(4-(1H-pyrazolo[3,4-d]pyrimidin-4-yloxy)-3-fluorophenyl)-3-(5-tert-butylisoxazol-3-yl)urea]
- remaining binding at 10 µM [1]: 26%
- remaining binding at 10 µM [2]: 10%
- remaining binding at 10 µM [3]: 66%
- remaining binding at 10 µM [4]: 100%
- remaining binding at 10 µM [5]: 88%
- remaining binding at 10 µM [6]: 100%
- remaining binding at 10 µM [7]: 28%
- remaining binding at 10 µM [8]: 66%
- remaining binding at 10 µM [9]: 100%
- remaining binding at 10 µM [10]: 98%
- remaining binding at 10 µM [11]: 36%
- IC50 [12]: > 10 µM
- remaining binding at 10 µM [13]: 100%
- remaining binding at 10 µM [14]: 19%
- apoptosis of AML cells [15]: about 50%
- remaining binding at 10 µM [16]: 100%
- remaining binding at 10 µM [17]: 0.05%
- Kd [18]: > 10 µM
- remaining binding at 10 µM [19]: 4.8%
- remaining binding at 10 µM [20]: 0.15%
- IC50 [21]: > 10 µM

Reference: PMC4620497 (Scientific Reports, 2015)
